From patent publication US20180282415A1, “Combination of a PD-1 Axis Binding Antagonist and an ALK Inhibitor for Treating ALK-Negative Cancer” (Merck Patent GmbH, priority 2015, published 2018)

Experiments:
[1] = test system: CD3/CD28-stimulated effector cells (T cells from healthy donors' PBMCs); assay: T cell proliferation assay (3H thymidine incorporation), CD3/CD28-stimulated T cells; format: cell-based, human; conditions: for Thymidine incorporation(CPM): log[Agonist]
Source text: (§1) Briefly, human cells were isolated from healthy donors' PBMCs by using EasySep™ Human T Cell Enrichment Kit (Stemcell Technologies) according to manufacturer's instruction. […] Culture supernatants were collected on Day 2 or 3 for cytokine analysis. Plates were then harvested on DNA specific filter papers (Perkin Elmer) using Harvester96 (Tomtec Life Sciences). The radiolabeled filters were covered with beta scintillation liquid (Perkin Elmer) and read in Microbeta® counter plates (Perkin Elmer). ^3H Thymidine was pulsed on Day 2 for T cell proliferation assay.

activated T cells = assay: T cell viability, Cell-Titer Glo Luminescent Cell Viability Assay; format: cell-based, human; conditions: for Luciferase RLU (T cell viability): log[Agonist]
Method: as §1, with “instruction. […] Cells were cultured in RPMI 1640 medium supplemented with 10% FCS and 100 I.U./mL penicillin/streptomycin in humidified incubator at 37° C. with 5% CO2.” for “instruction.”, “assay. The impact by sunitinib and axitinib on T cell proliferation and viability were repeated as previously published (FIGS. 1A and 1B).” for “assay.”
Cell viability was measured by Cell-Titer Glo Luminescent Cell Viability Assay® (Promega, Madison). […] Table 4 below provides the Luciferase RLU values reflecting T cell viability for each of the respective inhibitors.

CT26 colon carcinoma = assay: In vivo tumor efficacy, CT26 model, PF-06463922 with anti-PD-L1 (Example 2); parameters: species or system Balb/c mice; conditions: for Average tumor volume: anti-PD-L1 10 mg/kg i.p. every 3 days x3, PF-06463922 3 mg/kg orally once daily; for Effect on CT26 tumor growth: treatment started in tumors of 100-150 mm^3, compared with isotype
Source text: Both CT26 colon carcinoma and B16 melonoma cell lines have published mutanome and transcriptome data, with no known ALK fusion events or oncogenic mutations. Castle et al, BMC Genomics, 15:190 (13 Mar. 2014); Castle et al, CAN 11:3722 (11 Jan. 2012). […] The percentage of TGI was defined as 1-(Tumor volumnTreated/Tumor volumnisotype control)×100.
(§2) The CT26 colon carcinoma cell line was purchased from ATCC® CRL-2638™. B16-F10 (‘B16’) melonoma cell lines were purchased from ATCC® CRL-6475™. Cells were cultured in DMEM medium supplemented with 10% fetal bovine serum, and 100 I.U./mL penicillin/streptomycin at 37° C. in an atmosphere of 5% CO2 in air, and IMPACT-tested for pathogens at Research Animal Diagnostic Laboratory (RADIL) (Columbia, Mo.). Pathogen-free cells growing in an exponential growth phase were harvested and used for tumor inoculation.
(§3) Rat IgG2a isotype control were purchased from BioXcell (clone 2A3)(West Lebanon, N.H.).
(§4) For the second study, C57BL/6 mice were inoculated subcutaneously in the right lower flank with 0.1 ml of 1×10^6 B16 skin melanoma cells. When tumor bearing mice achieved a mean tumor volume of 100 to 150 mm^3, mice were randomly assigned to 1 of 4 treatment groups, n=10.

B16 skin melanoma = assay: In vivo tumor efficacy, B16 melanoma model, PF-06463922 with anti-PD-L1 (Example 2); parameters: species or system C57BL/6 mice; conditions: end of study (day 22 post tumor implant), n=10
Method: as §2, §3, §4

C[C@H]1Oc2cc(cnc2N)-c2c(nn(C)c2C#N)CN(C)C(=O)c2ccc(F)cc21 [PF-06463922, (10R)-7-amino-12-fluoro-2,10,16-trimethyl-15-oxo-10,15,16,17-tetrahydro-2H-8,4-(metheno)pyrazolo[4,3-h][2,5,11]benzoxadiazacyclotetradecine-3-carbonitrile]
Effect on T cell proliferation ([1]; activated T cells, FIG. 1A): did not have adverse effects on T cell proliferation | Thymidine incorporation(CPM) ([1]; μM: 0): 399866.7 ± 10135.82 CPM | Thymidine incorporation(CPM) ([1]; μM: 1): 364978.7 ± 37421.4 CPM | Thymidine incorporation(CPM) ([1]; μM: 2): 258875.3 ± 25269.1 CPM | Thymidine incorporation(CPM) ([1]; μM: 3): 94120.66 ± 2728.719 CPM | Thymidine incorporation(CPM) ([1]; μM: −1): 416579.3 ± 23523.21 CPM | Thymidine incorporation(CPM) ([1]; μM: −2): 411422.3 ± 13377.95 CPM | Thymidine incorporation(CPM) ([1]; μM: −3): 401448.3 ± 37205.07 CPM | Effect on T cell viability (activated T cells; FIG. 1B): did not result in dose-dependent decreases in T cell viability | Luciferase RLU (T cell viability) (activated T cells; μM: 0): 88.53 ± 0.7567 RLU | Luciferase RLU (T cell viability) (activated T cells; μM: 1): 89.118 ± 1.283 RLU | Luciferase RLU (T cell viability) (activated T cells; μM: 2): 88.6231 ± 1.573 RLU | Luciferase RLU (T cell viability) (activated T cells; μM: 3): 40.36 ± 9.736 RLU | Luciferase RLU (T cell viability) (activated T cells; μM: −1): 97.8625 ± 2.288 RLU | Luciferase RLU (T cell viability) (activated T cells; μM: −2): 95.86 ± 0.6202 RLU | Luciferase RLU (T cell viability) (activated T cells; μM: −3): 98.17 ± 0.6606 RLU | Average tumor volume (CT26 colon carcinoma; Day 5): 181.85 ± 12.6828 mm^3 | Average tumor volume (CT26 colon carcinoma; Day 9): 253.14 ± 34.78 mm^3 | Average tumor volume (CT26 colon carcinoma; Day 14): 548.44 ± 96.03 mm^3 | Average tumor volume (CT26 colon carcinoma; Day 17): 962.02 ± 180.1961 mm^3 | Average tumor volume (CT26 colon carcinoma; Day 21): 1696.96 ± 285.9975 mm^3 | tumor growth inhibition (TGI) (CT26 colon carcinoma; day 21 post tumor inoculation, relative to the isotype control): 28.3% | Effect on CT26 tumor growth (CT26 colon carcinoma): partially effective | Effect on CT26 tumor growth (CT26 colon carcinoma; listed as ALK inhibitor): did not consistently inhibit CT26 tumor growth | animals with a complete response (tumor free) (B16 skin melanoma): no animals having a complete response
